One may read the MIC as the smallest concentration in the dilution series that meets the test's criterion for growth inhibition. By CC50 is commonly meant the concentration at which the toxic effect on the cells reaches its halfway point.

≈ marks a conversion by molar mass, not a printed value. Calls of active or inactive are those of the source. Square brackets hold non-standard residues; d marks the D form. Peptide text beside a SMILES is read from it. ξ: configuration not given here. Ile(3ξ) = CCC(C)[C@H](N)C(=O)O

Data on nine compounds can be found in ChEMBL document CHEMBL5108051, “Improving the Antimicrobial Performance of Amphiphilic Cationic Antimicrobial Peptides Using Glutamic Acid Full-Scan and Positive Charge Compensation Strategies” (J Med Chem, 2022).

Data set [1] has as its system Staphylococcus aureus. The experiment in a line: Antimicrobial activity against Staphylococcus aureus ATCC 25923 assessed as fold increase in MIC in presence of KCl. In kind it is functional.
The subject of the next data set is Pseudomonas aeruginosa. The experiment in a line: Antibacterial activity against Pseudomonas aeruginosa ATCC 27853 assessed as growth inhibition measured after 18 to 24 hrs by CLSI based broth microdilution method. Conditions: time 18-24 hrs. In kind it is functional. (In general: Broth dilution looks for growth in wells or tubes with falling amounts of substance.)

Data set [2] relates to Escherichia coli. The experiment in a line: Antibacterial activity against Escherichia coli ATCC 25922 assessed as growth inhibition measured after 18 to 24 hrs by CLSI based broth microdilution method. The class given is functional. The note with it: time 18-24 hrs.
Data set [3] relates to Staphylococcus aureus. The experiment in a line: Antimicrobial activity against Staphylococcus aureus ATCC 25923 assessed as fold increase in MIC in presence of MgCl2. In kind it is functional.
The subject of data set [4] is Escherichia coli. The experiment in a line: Antimicrobial activity against Escherichia coli ATCC 25922 in presence of MgCl2. In kind it is functional, organism-based.
A further data set concerns Klebsiella pneumoniae. The experiment in a line: Antibacterial activity against Klebsiella pneumoniae ATCC 700603 assessed as growth inhibition measured after 18 to 24 hrs by CLSI based broth microdilution method. The class given is functional. The note with it: time 18-24 hrs.
In data set [5] the test system is Escherichia coli. The experiment in a line: Antimicrobial activity against Escherichia coli ATCC 25922 in presence of KCl. In kind it is functional, organism-based.
The next data set has as its system Bacillus subtilis. The experiment in a line: Antibacterial activity against Bacillus subtilis ATCC 23857 assessed as growth inhibition measured after 18 to 24 hrs by CLSI based broth microdilution method. In kind it is functional. Conditions: time 18-24 hrs.
Data set [6] concerns Staphylococcus aureus. The experiment in a line: Antibacterial activity against Staphylococcus aureus ATCC 25923 assessed as growth inhibition measured after 18 to 24 hrs by CLSI based broth microdilution method. In kind it is functional. Conditions: time 18-24 hrs.
The test system of data set [7] is Staphylococcus aureus. The experiment in a line: Antimicrobial activity against Staphylococcus aureus ATCC 25923 assessed as fold increase in MIC in presence of NaCl. The class given is functional.
Another data set has as its system Erythrocyte. The experiment in a line: Hemolytic activity against mouse RBC measured after 1 hrs. In kind it is toxicity, cell-based.
Data set [8] concerns Escherichia coli. The experiment in a line: Antimicrobial activity against Escherichia coli ATCC 25922 in presence of NaCl. In kind it is functional, organism-based.
Data set [9] relates to Staphylococcus aureus. The experiment in a line: Antimicrobial activity against Staphylococcus aureus ATCC 25923 assessed as increase fold in increase MIC in presence of FeCl3. The class given is functional.
Data set [10] is described as follows: Cytotoxicity against human Glomerular mesenchymal cell assessed as reduction in cell viability at 0 to 128 uM incubated for 1 hr by Resazurin cell viability kit. In kind it is toxicity, cell-based. Conditions: glomerular mesenchymal cells, dose 0-128 µM. On the technique in general: Alamar Blue is a resazurin reagent that responds to reducing activity.
Data set [11] concerns Staphylococcus aureus. The experiment in a line: Antimicrobial activity against Staphylococcus aureus ATCC 25923 in presence of MgCl2. In kind it is functional, organism-based.
The subject of data set [12] is Escherichia coli. The experiment in a line: Antibacterial activity against Escherichia coli ATCC 25922 assessed as fold increase in MIC measured after 15 passages by resistance development assay relative to control. The class given is functional.
Data set [13] deals with Staphylococcus aureus. The experiment in a line: Antimicrobial activity against Staphylococcus aureus ATCC 25923 in presence of KCl. The class given is functional, organism-based.
The subject of data set [14] is Staphylococcus aureus. The experiment in a line: Antibacterial activity against Staphylococcus aureus ATCC 25923 assessed as fold increase in MIC measured after 15 passages by resistance development assay. The class given is functional.
Data set [15] in a line: Stability of compound in serum measured after 1 to 6 hrs by RP-HPLC analysis. In kind it is ADME, cell-free. Conditions: time 1-6 hrs.
In data set [16] the test system is Staphylococcus aureus. The experiment in a line: Antimicrobial activity against Staphylococcus aureus ATCC 25923 in presence of FeCl3. In kind it is functional, organism-based.
The test system of data set [17] is Cell membrane. The experiment in a line: Induction of cell membrane disruption in Escherichia coli ATCC 25922 assessed as increase in PI uptake measured after 30 to 120 mins by propidium iodide staining based FACS flow cytometry analysis (reference value: 6.0 %). The class given is subcellular. The note with it: time 30-120 min. On the technique in general: A flow cytometer gives signals particle by particle.

The test system of data set [18] is Staphylococcus aureus. The experiment in a line: Antimicrobial activity against Staphylococcus aureus ATCC 25923 in presence of NaCl. The class given is functional, organism-based.
For data set [19], the system named is Cell membrane. The experiment in a line: Induction of cell membrane disruption in Staphylococcus aureus ATCC 25923 assessed as increase in PI uptake measured after 30 to 120 mins by propidium iodide staining based FACS flow cytometry analysis (reference value: 15%). The class given is subcellular. Conditions: time 30-120 min.

On to `CC(C)C[C@H](NC(=O)[C@H](CC(C)C)NC(=O)[C@H](CCCCN)NC(=O)[C@H](CCC(=O)O)NC(=O)[C@H](CC(C)C)NC(=O)[C@H](CC(C)C)NC(=O)[C@H](CCCCN)NC(=O)[C@H](C)NC(=O)[C@@H](NC(=O)[C@H](CCCCN)NC(=O)[C@@H]1CCCN1C(=O)[C@H](CC(C)C)NC(=O)[C@@H](N)Cc1ccccc1)C(C)C)C(N)=O` (H-FLPKVAKLLEKLL-NH2), for which the “fold change (FC)” value in the data set with Staphylococcus aureus [1], in the data set with Staphylococcus aureus [3], in the data set with Staphylococcus aureus [7] and in the data set with Staphylococcus aureus [9] was 2 in each case. Moreover, the MIC in the data set with Pseudomonas aeruginosa was determined as 16 µM (≈ 24.2 µg/mL); in the data set on Escherichia coli [2] it was 8 µM (≈ 12.1 µg/mL); with Klebsiella pneumoniae, 32 µM (≈ 48.4 µg/mL); with Bacillus subtilis it was 8 µM (≈ 12.1 µg/mL); in the data set with Staphylococcus aureus [6], 8 µM (≈ 12.1 µg/mL). Moreover, the outcome in the data set with Escherichia coli [4], in the data set on Escherichia coli [5] and in the data set with Escherichia coli [8] was Active. This compound registered an MHC10 in the data set with Erythrocyte above 256 µM. For the same compound, in data set [10], the CC50 at 1 h was above 128 µM.

Take `CO[C@H]1/C=C/O[C@@]2(C)Oc3c(C)c(O)c4c(O)c(c(/C=N/N5CCN(C)CC5)c(O)c4c3C2=O)NC(=O)/C(C)=C\C=C\[C@H](C)[C@H](O)[C@@H](C)[C@@H](O)[C@@H](C)[C@H](OC(C)=O)[C@@H]1C` [RIFAMPIN]: the MIC with Pseudomonas aeruginosa is 32 µM (≈ 26.3 µg/mL); in the data set with Escherichia coli [2], 4 µM (≈ 3.29 µg/mL); with Klebsiella pneumoniae, 32 µM (≈ 26.3 µg/mL); in the data set on Bacillus subtilis, below 1 µM; in the data set on Staphylococcus aureus [6] it was below 1 µM. For the same compound, the result in the data set on Staphylococcus aureus [11], with Staphylococcus aureus [13], in the data set with Staphylococcus aureus [16] and with Staphylococcus aureus [18] was Active. In addition, the entries for the “fold change (FC)” value in the data set with Escherichia coli [12] and in the data set with Staphylococcus aureus [14] were 16 and 4096, respectively. Besides, the Stability entry in data set [15] is recorded as “Stable”. The Activity in the data set on Cell membrane [17] was found to be 17.4%; with Cell membrane [19], 3.45%.

With `CC[C@H](C)[C@H](NC(=O)[C@@H]1CCCN1C(=O)[C@H](CC(C)C)NC(=O)[C@@H](N)Cc1ccccc1)C(=O)N[C@H](C(=O)N[C@@H](C)C(=O)N[C@@H](CCCCN)C(=O)N[C@@H](CC(C)C)C(=O)N[C@@H](CCC(=O)O)C(=O)N[C@@H](CO)C(=O)NCC(=O)N[C@@H](CC(C)C)C(=O)N[C@@H](CC(C)C)C(N)=O)C(C)C` (H-FLPIVAKLESGLL-NH2), the MIC in the data set on Pseudomonas aeruginosa, in the data set on Escherichia coli [2], with Klebsiella pneumoniae, with Bacillus subtilis and in the data set on Staphylococcus aureus [6] was above 128 µM throughout. In the data set with Erythrocyte, this compound displayed an MHC10 above 256 µM.

With `CCC(C)[C@H](NC(=O)[C@@H]1CCCN1C(=O)[C@H](CC(C)C)NC(=O)[C@@H](N)Cc1ccccc1)C(=O)N[C@H](C(=O)N[C@@H](C)C(=O)N[C@@H](CCCCN)C(=O)N[C@@H](CC(C)C)C(=O)N[C@@H](CC(C)C)C(=O)N[C@@H](CO)C(=O)N[C@@H](CCCCN)C(=O)N[C@@H](CC(C)C)C(=O)N[C@@H](CC(C)C)C(N)=O)C(C)C` (stereo partly specified) (H-FLP[Ile(3ξ)]VAKLLSKLL-NH2), the MIC in the data set on Pseudomonas aeruginosa was above 128 µM; in the data set on Escherichia coli [2], above 128 µM; in the data set with Klebsiella pneumoniae, above 128 µM; in the data set on Bacillus subtilis, 4 µM (≈ 5.82 µg/mL); in the data set with Staphylococcus aureus [6], 8 µM (≈ 11.6 µg/mL). The compound also came in with an MHC10 in the data set on Erythrocyte of 17.97 µM.

For the compound GENTAMICIN, the fold change (FC) with Escherichia coli [12] was 128; in the data set with Staphylococcus aureus [14], 512.

Consider `CCC(C)[C@H](NC(=O)[C@@H]1CCCN1C(=O)[C@H](CC(C)C)NC(=O)[C@@H](N)Cc1ccccc1)C(=O)N[C@H](C(=O)N[C@@H](CCCCN)C(=O)N[C@@H](CCCCN)C(=O)N[C@@H](CC(C)C)C(=O)N[C@@H](CC(C)C)C(=O)N[C@@H](CCC(=O)O)C(=O)N[C@@H](CCCCN)C(=O)N[C@@H](CC(C)C)C(=O)N[C@@H](CC(C)C)C(N)=O)C(C)C` (stereo partly specified) (H-FLP[Ile(3ξ)]VKKLLEKLL-NH2), for which the MIC in the data set with Pseudomonas aeruginosa came out at 8 µM (≈ 12.4 µg/mL); in the data set with Escherichia coli [2], 8 µM (≈ 12.4 µg/mL); in the data set on Klebsiella pneumoniae, 16 µM (≈ 24.8 µg/mL); in the data set on Bacillus subtilis, 4 µM (≈ 6.21 µg/mL); in the data set with Staphylococcus aureus [6], 4 µM (≈ 6.21 µg/mL). Besides, in the data set with Erythrocyte, the MHC10 was 42.55 µM.

For `CC(C)C[C@H](NC(=O)[C@H](CC(C)C)NC(=O)CNC(=O)[C@H](CO)NC(=O)[C@H](CC(C)C)NC(=O)[C@H](CC(C)C)NC(=O)[C@H](CCCCN)NC(=O)[C@H](C)NC(=O)[C@@H](NC(=O)[C@H](CCC(=O)O)NC(=O)[C@@H]1CCCN1C(=O)[C@H](CC(C)C)NC(=O)[C@@H](N)Cc1ccccc1)C(C)C)C(N)=O` (H-FLPEVAKLLSGLL-NH2), the MIC in the data set on Pseudomonas aeruginosa was above 128 µM; in the data set with Escherichia coli [2], 64 µM (≈ 89.5 µg/mL); in the data set on Klebsiella pneumoniae it was above 128 µM; in the data set on Bacillus subtilis it was above 128 µM; in the data set on Staphylococcus aureus [6], above 128 µM. Moreover, the MHC10 in the data set on Erythrocyte is above 256 µM.

Take `CC[C@H](C)[C@H](NC(=O)[C@@H]1CCCN1C(=O)[C@H](CC(C)C)NC(=O)[C@@H](N)Cc1ccccc1)C(=O)N[C@H](C(=O)N[C@@H](C)C(=O)N[C@@H](CCC(=O)O)C(=O)N[C@@H](CC(C)C)C(=O)N[C@@H](CC(C)C)C(=O)N[C@@H](CO)C(=O)NCC(=O)N[C@@H](CC(C)C)C(=O)N[C@@H](CC(C)C)C(N)=O)C(C)C` (H-FLPIVAELLSGLL-NH2): the MIC in the data set on Pseudomonas aeruginosa, in the data set with Escherichia coli [2], with Klebsiella pneumoniae, in the data set on Bacillus subtilis and in the data set with Staphylococcus aureus [6] was above 128 µM in each case. In the data set on Erythrocyte, the MHC10 is above 256 µM.

Take `CC[C@H](C)[C@H](NC(=O)[C@H](CCC(=O)O)NC(=O)[C@H](CC(C)C)NC(=O)[C@@H](N)Cc1ccccc1)C(=O)N[C@H](C(=O)N[C@@H](C)C(=O)N[C@@H](CCCCN)C(=O)N[C@@H](CC(C)C)C(=O)N[C@@H](CC(C)C)C(=O)N[C@@H](CO)C(=O)NCC(=O)N[C@@H](CC(C)C)C(=O)N[C@@H](CC(C)C)C(N)=O)C(C)C` (H-FLEIVAKLLSGLL-NH2): the MIC is above 128 µM with Pseudomonas aeruginosa; above 128 µM in the data set with Escherichia coli [2]; above 128 µM in the data set with Klebsiella pneumoniae; 16 µM (≈ 22.6 µg/mL) with Bacillus subtilis; 16 µM (≈ 22.6 µg/mL) in the data set on Staphylococcus aureus [6]. This compound also came in with an MHC10 in the data set with Erythrocyte of 16.06 µM.
